From article PMC5363571 (Oncotarget, 2016)
Where a name gives a salt, the structure may show the parent alone.

Target: USP7 (Homo sapiens, UniProt Q93009)
Assay: biochemical
Parameters: Ub-AMC hydrolysis by recombinant USP7 (20 nM), 30 min pre-incubation, fluorescence read-out
Settings: read-out: % Inhibition at 50 μM

USP7, sequence (Q93009 whole entry): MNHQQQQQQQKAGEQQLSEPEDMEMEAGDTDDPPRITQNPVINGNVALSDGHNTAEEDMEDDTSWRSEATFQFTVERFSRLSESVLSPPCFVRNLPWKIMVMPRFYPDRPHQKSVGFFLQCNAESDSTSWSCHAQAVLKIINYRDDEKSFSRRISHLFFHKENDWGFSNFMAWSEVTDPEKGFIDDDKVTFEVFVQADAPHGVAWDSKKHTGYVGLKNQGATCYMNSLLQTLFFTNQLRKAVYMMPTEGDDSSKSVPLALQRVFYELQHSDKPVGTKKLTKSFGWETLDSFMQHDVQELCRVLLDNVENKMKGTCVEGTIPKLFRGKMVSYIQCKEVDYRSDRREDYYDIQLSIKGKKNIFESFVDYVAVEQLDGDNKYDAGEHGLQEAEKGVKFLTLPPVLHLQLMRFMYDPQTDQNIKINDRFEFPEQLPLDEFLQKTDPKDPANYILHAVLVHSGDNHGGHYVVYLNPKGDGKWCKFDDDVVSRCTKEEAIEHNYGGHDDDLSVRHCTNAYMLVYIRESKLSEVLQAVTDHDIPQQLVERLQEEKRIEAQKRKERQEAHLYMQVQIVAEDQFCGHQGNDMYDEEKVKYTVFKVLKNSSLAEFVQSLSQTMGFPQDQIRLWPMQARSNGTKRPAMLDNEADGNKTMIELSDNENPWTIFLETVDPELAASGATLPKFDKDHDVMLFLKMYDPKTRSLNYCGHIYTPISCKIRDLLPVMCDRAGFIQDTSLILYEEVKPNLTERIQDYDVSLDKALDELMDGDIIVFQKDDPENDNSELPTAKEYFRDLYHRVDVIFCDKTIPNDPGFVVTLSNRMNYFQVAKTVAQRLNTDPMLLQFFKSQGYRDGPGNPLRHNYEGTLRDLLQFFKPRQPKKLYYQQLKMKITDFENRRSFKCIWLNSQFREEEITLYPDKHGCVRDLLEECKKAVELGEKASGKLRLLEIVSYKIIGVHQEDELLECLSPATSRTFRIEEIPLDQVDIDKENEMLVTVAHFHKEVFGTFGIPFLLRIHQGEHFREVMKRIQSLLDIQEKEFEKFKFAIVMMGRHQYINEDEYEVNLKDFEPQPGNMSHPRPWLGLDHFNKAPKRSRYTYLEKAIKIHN

CC(C)(O)c1ccccc1CC[C@@H](SCC1(CC(=O)O)CC1)c1cccc(/C=C/c2ccc3ccc(Cl)cc3n2)c1 [Montelukast]
inhibition at 50 µM: 76.3%

COc1ccc(C(CN(C)C)C2(O)CCCCC2)cc1 (stereo not drawn) [Venlafaxine HCl]
inhibition at 50 µM: < 5%

CCCC[N+]1(C)[C@@H]2C[C@@H](OC(=O)[C@H](CO)c3ccccc3)C[C@H]1[C@@H]1O[C@@H]12 (stereo partly drawn) [Scopolamine n-butylbromide]
inhibition at 50 µM: < 5%

COCCOC(=O)C1=C(C)NC(C)=C(C(=O)OC/C=C/c2ccccc2)C1c1cccc([N+](=O)[O-])c1 (stereo not drawn) [Cilnidipine]
inhibition at 50 µM: < 5%

CN1[C@@H](CC(=O)c2ccccc2)CCC[C@H]1C[C@H](O)c1ccccc1 [Lobeline]
inhibition at 50 µM: < 5%

CN(C)CCCOc1nn(Cc2ccccc2)c2ccccc12 [Benzydamine]
inhibition at 50 µM: < 5%

O=c1[nH]c2ccccc2n1CCCN1CCC(n2c(=O)[nH]c3cc(Cl)ccc32)CC1 [Domperidone]
inhibition at 50 µM: < 5%

CN(C)/N=N/c1[nH]cnc1C(N)=O [Dacarbazine]
inhibition at 50 µM: < 5%

O=C(O)c1ccccc1Nc1cccc(C(F)(F)F)c1 [Flufenamic acid]
inhibition at 50 µM: < 5%

CC(C)COCC(CN(Cc1ccccc1)c1ccccc1)N1CCCC1 (stereo not drawn) [Bepridil]
inhibition at 50 µM: < 5%

O=C(NCCNCC(O)COc1ccc(O)cc1)N1CCOCC1 (stereo not drawn) [Xamoterol hemifumarate]
inhibition at 50 µM: < 5%

CC#C[C@]1(O)CC[C@H]2[C@@H]3CCC4=CC(=O)CCC4=C3[C@@H](c3ccc(N(C)C)cc3)C[C@@]21C [Mifepristone]
inhibition at 50 µM: < 5%

CO[C@H]1C[C@@H]2CC[C@@H](C)[C@@](O)(O2)C(=O)C(=O)N2CCCC[C@H]2C(=O)O[C@H]([C@H](C)C[C@@H]2CC[C@@H](O)[C@H](OC)C2)CC(=O)[C@H](C)/C=C(\C)[C@@H](O)[C@@H](OC)C(=O)[C@H](C)C[C@H](C)/C=C/C=C/C=C/1C [Rapamycin]
inhibition at 50 µM: < 5%

NC12CC3CC(CC(C3)C1)C2 [Amantadine HCl]
inhibition at 50 µM: < 5%

CN1CCCCC1CCN1c2ccccc2Sc2ccc([S+](C)[O-])cc21 (stereo not drawn) [Mesoridazine besylate]
inhibition at 50 µM: 16.5%

CCC(C)(C)C(=O)O[C@H]1C[C@@H](C)C=C2C=C[C@H](C)[C@H](CC[C@@H]3C[C@@H](O)CC(=O)O3)[C@H]21 [Simvastatin]
inhibition at 50 µM: < 5%

Cn1c(=O)c2c(ncn2CC2OCCO2)n(C)c1=O [Doxofylline]
inhibition at 50 µM: < 5%

NCCCC(O)(P(=O)(O)O)P(=O)(O)O [Alendronate]
inhibition at 50 µM: < 5%

CN1C[C@@H](NS(=O)(=O)N(C)C)C[C@@H]2c3cccc4c3c(cn4C)C[C@H]21 [Mesulergine HCl]
inhibition at 50 µM: < 5%

N[C@@H](Cc1ccc(O)c(O)c1)C(=O)O [Levodopa]
inhibition at 50 µM: < 5%

O=C(O)COC(=O)Cc1ccccc1Nc1c(Cl)cccc1Cl [Aceclofenac]
inhibition at 50 µM: < 5%

N[C@@H](Cc1cc(I)c(Oc2cc(I)c(O)c(I)c2)c(I)c1)C(=O)O [L-thyroxine [(3-[4-(4-hydroxy-3,5-diiodophenoxy)-3,5-diiodophenyl]-l-alanine]]
inhibition at 50 µM: 65.3%

CC(C)NCC(O)c1ccc2ccccc2c1 (stereo not drawn) [Pronethalol HCl]
inhibition at 50 µM: 8.3%

Clc1ccc(COC(Cn2ccnc2)c2ccc(Cl)cc2Cl)c(Cl)c1 (stereo not drawn) [Miconazole]
inhibition at 50 µM: < 5%

CCC(=O)O[C@@H](O[P@](=O)(CCCCc1ccccc1)CC(=O)N1C[C@H](C2CCCCC2)C[C@H]1C(=O)O)C(C)C [Fosinopril]
inhibition at 50 µM: < 5%

OCc1cc(C(O)CNCCCCCCOCCCCc2ccccc2)ccc1O (stereo not drawn) [Salmeterol]
inhibition at 50 µM: < 5%

COC(=O)C1=C(C)NC(C)=C(C(=O)OCCN2CCN(C(c3ccccc3)c3ccccc3)CC2)C1c1cccc([N+](=O)[O-])c1 (stereo not drawn) [Manidipine]
inhibition at 50 µM: < 5%

CC(C)c1cccc(C(C)C)c1O [Propofol]
inhibition at 50 µM: < 5%

O=C(C1CCCCC1)N1CC(=O)N2CCc3ccccc3C2C1 (stereo not drawn) [Praziquantel]
inhibition at 50 µM: < 5%

CNC[C@H](O)c1ccc(O)c(O)c1 [Epinephrine-(+)-tartrate l (-)]
inhibition at 50 µM: < 5%
